Experimental data from PMC3636874, “An Antedrug of the CXCL12 Neutraligand Blocks Experimental Allergic Asthma without Systemic Effect in Mice” (The Journal of Biological Chemistry, 2013).

Key:
[1] = test system: inflammatory cell recruitment in the airways of OVA-sensitized and challenged BALB/c mice; test: 8-day murine model of airway hypereosinophilia (OVA sensitization and challenge), cell counts in BALF; format: in vivo, mouse; details: intranasal 300 nmol/kg in 10% HP-βCD; for effect on eosinophil / inflammatory cell recruitment in BALF after OVA challenge, intranasal: 2 h before each challenge
Experimental: The in vivo activity of the compounds was assessed in an 8-day model of hypereosinophilia created by immunization and challenge to ovalbumin in mice. Briefly, 9-week-old male BALB/c mice were sensitized by intraperitoneal injection of a mixture of 50 μg of ovalbumin (OVA, grade V; Sigma-Aldrich) adsorbed on aluminum hydroxide (2 mg; Sigma-Aldrich) in 0.1 ml of saline on days 0, 1, and 2. Mice were challenged intranasally with 10 μg of OVA in 25 μl of saline (12.5 μl/nostril) on days 5, 6, and 7. Control mice received intraperitoneal and intranasal administrations of saline alone. Intranasal administrations were performed under anesthesia with 50 mg/kg ketamine and 3.33 mg/kg xylazine given intraperitoneally. Food and water were supplied ad libitum. Animal experimentation was conducted with the approval of the government body that regulates animal research in France. The chalcone compounds were administered either by the intraperitoneal or intranasal routes. In a first set of experiments, mice received either chalcone 4 or carbonitrile-chalcone 4 solubilized in PBS with 10% HP-βCD (C0926, Sigma) by intranasal injection 2 h before each nasal OVA or saline challenge. In a second set of experiments, mice received CN-chalcone 4, vanillin, or parachlorobenzoylacetonitrile intranasally, in PBS with HP-βCD 10%, 2 h before each OVA or saline challenge. In the last set of experiments, mice received chalcone 4 or CN-chalcone 4 in suspension in carboxymethylcellulose 1% or solubilized in PBS with HP-βCD 10% and administered by intraperitoneal injection 2 h before each OVA or saline challenge. Collection of bronchoalveolar lavage fluid (BALF) was performed 24 h after the last OVA challenge. Mice were deeply anesthetized by intraperitoneal injection of 150 mg/kg ketamine and 10 mg/kg xylazine. A plastic canula was inserted into the trachea, and airways were lavaged by 10 instillations of 0.5 ml of ice-cold saline supplemented with 2.6 mM EDTA (saline-EDTA). Total and differential cell counts in the BALF were performed after centrifugation (300 × g for 5 min at 4 °C) to pellet cells. Erythrocytes were lysed by hypotonic shock by the addition of 1.5 ml of distilled H2O, followed by the addition of 0.5 ml of 0.6 M KCl. Cells were centrifuged and resuspended in 500 μl of ice-cold saline-EDTA, and total cell counts were determined using a hemocytometer (Neubauer's chamber). Differential cell counts were assessed on cytologic preparation obtained by cytocentrifugation (Cytospin 3, Shandon Ltd.) of 200 μl of diluted BALF (250,000 cells/ml in ice-cold saline-EDTA). Slides were stained with Hemacolor (Merck), and counts were performed on at least 400 cells for each preparation. Differential counts were expressed as absolute numbers or as a percentage of the total number of cells.
The in vivo activity of CN-chalcone 4 was assayed in a recently developed 8-day mouse model of airway hypereosinophilia ([24]). In this model, mice are sensitized by intraperitoneal injection of OVA (50 μg) adsorbed on 2 mg of aluminum hydroxide in 0.1 ml of saline on days 0, 1, and 2. Mice are then challenged intranasally with 10 μg of OVA in 25 μl of saline (12.5 μl/nostril) on days 5, 6, and 7. Drugs to be tested can be administered either systemically by the intraperitoneal route or locally by the intranasal route. The intranasal route mimics the inhalation exposure used in humans, which is the preferred and well accepted administration for inflamed airway treatment, in particular asthma. Thus, unless otherwise stated, drugs were administered intranasally in this study. Due to limited solubility of chalcone 4 (9 ± 1 μM) and CN-chalcone 4 (16 ± 2 μM) in saline buffer, drugs were dissolved in physiological solutions complemented with HP-βCD (10%, w/w). Under such conditions, chalcone 4 and CN-chalcone 4 could be dissolved at maximal concentrations reaching 690 ± 44 and 493 ± 36 μM, respectively.

CXCL12 binding to CXCR4 [2] = molecular target: T1, CXCL12 binding to CXCR4 (Homo sapiens, UniProt P48061); parameters: method as in PMID 18556651; details: cited from earlier work
T1 construct: expressed in transfected cells

CXCL12 binding to CXCR4 [3] = molecular target: T1, CXCL12 binding to CXCR4; test: FRET-based binding of CXCL12-TR to EGFP-hCXCR4 (competition); details: concentrations up to 10 μM
Experimental: FRET-based binding experiments were carried out as described ([26], [46]). Human embryonic kidney 293 cells expressing the fusion receptor EGFP-hCXCR4 were harvested in PBS (137 mM NaCl, 2.7 mM KCl, 4.3 mM Na2PO4·7H2O, 1.4 mM KH2PO4, pH 7.4) supplemented with 5 mM EDTA, pH 7.4, centrifuged, and resuspended in HEPES-bovine serum albumin (BSA) buffer (10 mM HEPES, 137.5 mM NaCl, 1.25 mM MgCl2, 1.25 mM CaCl2, 6 mM KCl, 10 mM glucose, 0.4 mM NaH2PO4, 0.1% bovine serum albumin (w/v), pH 7.4). Cells were used at a concentration of 10^6 cells/ml. Apparent affinities of the different ligands were determined by real-time fluorescence monitoring ligand-receptor interactions. […] Fluorescence emitted at 510 nm (excitation at 470 nm) was recorded at 21 °C using a Fluorolog 2 spectrofluorimeter (SPEX) and sampled every 0.3 s. Binding of CXCL12-TR to EGFP-labeled CXCR4 was detected as a reversible decline of emission at 510 nm, due to energy transfer from excited EGFP to TR. For competition experiments, the fluorescent chemokine was preincubated for 1 h at room temperature with or without various concentrations of each chalcone. Then the premix was added, and fluorescence was recorded until equilibrium was reached (300 s). Data were analyzed using Kaleidagraph 3.08 software (Synergy Software, Reading, PA).

Compound	effect on eosinophil / inflammatory cell recruitment in BALF after OVA challenge, intranasal [1]	cell recruitment in the airways elicited by compound itself (saline-challenged mice), intranasal ([1]; no OVA challenge)	activity upon CXCL12 binding to CXCR4 (CXCL12 binding to CXCR4 [2])	binding-neutralizing activity (CXCL12-TR binding to EGFP-CXCR4) (CXCL12 binding to CXCR4 [3])
O=C(/C=C/c1ccccc1)c1ccccc1 [chalcone 1, reference compound]	nor does it significantly attenuate eosinophil or any other inflammatory cell recruitment in the airways	does not promote any inflammatory response per se	inactive	–
N#CCC(=O)c1ccc(Cl)cc1 [pCBA, para-chlorobenzoylacetonitrile]	no effect on eosinophil recruitment in the airways	–	–	Neither vanillin nor pCBA exhibits any binding-neutralizing activity
COc1cc(C=O)ccc1O [vanillin]	no effect on eosinophil recruitment in the airways	–	–	Neither vanillin nor pCBA exhibits any binding-neutralizing activity
